Our source for the MIC values is patent publication US11279735B2, “Cyclic peptide antibiotics” (priority 2017, dated 2022).

A word on the MIC: it is the lowest concentration that inhibits growth of the organism. Read a high MIC as a need for much substance.

Each structure is given as a SMILES string. In brackets after ≈: the same amount, converted by molar mass. *1 amine or outer side, *2 acyl side, *3 side chain or, on linkers, in order; H or OH if unused. Where a SMILES comes first, the peptide text is derived from it. [ ]: non-standard residue; d: D form. The star is where a group is joined. X13 = C[C@H](CO[C@H](CC1CC2(CCC2)C1)[C@@H](C)C(=O)[*:2])N[*:1]; X2 = CCCCCC[C@@H](OC[C@@H](C)N[*:1])[C@@H](C)C(=O)[*:2]; Cyclobutyl(trans-3-NH2) = N[C@H]1C[C@H](*)C1; Chg = N[C@H](C(=O)O)C1CCCCC1; NMeNva = CCC[C@H](NC)C(=O)O; Dap = NC[C@H](N)C(=O)O; Propyl(3-NH2) = NCCC*

The subject of this experiment is Escherichia coli (E. coli) strain CFT073 ATCC 700928. It is filed as cell-based. The following applies: ATCC 700928, 22 h. The method, boiled down: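 Broth microdilution MIC per CLSI M07-A8 in cation-adjusted Mueller Hinton II broth with 0.002% Tween-80. Ten-point 2-fold series topped at 64, 4, 0.5 or 0.13 μg/mL depending on protocol. Final inoculum OD600 0.0005, incubated 22 h at 35 °C.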
For the molecule `CCCCCCCCCC[C@H]1OC(=O)CNC(=O)[C@H]([C@H](C)O)NC(=O)[C@H](CNC(=N)N)NC(=O)[C@H]([C@@H](C)CC)NC(=O)[C@H](CC(C)C)N(C)C(=O)[C@@H]1C` [Example 26, 1-[[(6S,9S,12S,15S,18R,19R)-19-decyl-6-[(1S)-1-hydroxyethyl]-15-isobutyl-16,18-dimethyl-12-[(1S)-1-methylpropyl]-2,5,8,11,14,17-hexaoxo-1-oxa-4,7,10,13,16-pentazacyclononadec-9-yl]methyl]guanidine], the minimal inhibitory concentration (MIC) was 50 µM (≈ 37.6 µg/mL).

`CCC[C@H]1C(=O)N[C@@H](C2CCCCCC2)C(=O)N[C@@H](CN)C(=O)N[C@@H]([C@H](C)O)C(=O)NCC(=O)O[C@H](C[C@@H]2C[C@@H]3CC[C@@H](C3)C2)[C@@H](C)C(=O)N1C` [Example 83, (6S,9S,12S,15S,18R,19R)-9-(Aminomethyl)-19-(((1R,3s,5S)-bicyclo[3.2.1]octan-3-yl)methyl)-12-cycloheptyl-6-((S)-1-hydroxyethyl)-16,18-dimethyl-15-propyl-1-oxa-4,7,10,13,16-pentaazacyclononadecane-2,5,8,11,14,17-hexaone] gave an MIC of 0.39 µM (≈ 0.28 µg/mL).

With `CCCCCC[C@H]1OC(=O)CNC(=O)[C@H]([C@H](C)O)NC(=O)[C@H]([C@H](C)N)NC(=O)[C@H](C2CCCCC2)NC(=O)[C@H](CC(C)C)N(C)C(=O)[C@@H]1C` [Example 125, (6S,9S,12S,15S,18R,19R)-12-cyclohexyl-19-hexyl-15-isobutyl-16,18-dimethyl-9-[(1S)-1-aminoethyl]-6-[(1S)-1-hydroxyetltyl]-1-oxa-4,7,10,13,16-pentazacyclononadecane-2,5,8,11,14,17-hexone], the MIC was 3.2 µM (≈ 2.22 µg/mL).

For `CCCCCCCCCC[C@H]1OC(=O)CNC(=O)[C@H]([C@H](C)O)NC(=O)[C@H](CN)NC(=O)[C@H]([C@H](C)CC)NC(=O)[C@H](CC(C)C)N(C)C(=O)[C@@H]1C` [Example 1, (6S,9S,12S,15S,18R,19R)-9-(aminomethyl)-12-((R)-sec-butyl)-19-decyl-6-((S)-1-hydroxyethyl)-15-isobutyl-16,18-dimethyl-1-oxa-4,7,10,13,16-pentaazacyclononadecane-2,5,8,11,14,17-hexaone], the MIC was 3.1 µM (≈ 2.2 µg/mL).

On to `CCCCCC[C@H]1OC[C@@H](C)NC(=O)[C@H](COCCCN)NC(=O)[C@H](CO)NC(=O)[C@H](C2CCCCC2)NC(=O)[C@H](CCC)N(C)C(=O)[C@@H]1C` [Example 130, (3R,6S,9S,12S,15S,18R,19R)-6-(3-aminopropoxymethyl)-12-cyclohexyl-19-hexyl-9-(hydroxymethyl)-3,16,18-trimethyl-15-propyl-1-oxa-4,7,10,13,16-pentazacyclononadecane-5,8,11,14,17-pentone] (cyclo([Chg]SS(Propyl(3-NH2))[X2][NMeNva])), for which the MIC was determined as 44 µM (≈ 31.3 µg/mL).

Take `CCCCCC[C@H]1OC(=O)CNC(=O)[C@H]([C@H](C)O)NC(=O)[C@H](CN)NC(=O)[C@H](C2CCCCC2)NC(=O)[C@H](CC(C)C)N(C)C(=O)[C@@H]1CCOc1ccc(C)cc1` [Example 106, (6S,9S,12S,15S,18R,19R)-9-(aminomethyl)-12-cyclohexyl-19-hexyl-15-isobutyl-16-methyl-18-[2-(4-methylphenoxy)ethyl]-6-[(1S)-1-hydroxyethyl]-1-oxa-4,7,10,13,16-pentazacyclononadecane-2,5,8,11,14,17-hexone]: the minimal inhibitory concentration (MIC) was determined as 6.3 µM (≈ 5.05 µg/mL).

Regarding `CCCCCC[C@H]1OC(=O)CNC(=O)[C@H]([C@H](C)O)NC(=O)[C@H](CO)NC(=O)[C@H](C2CCCCC2)NC(=O)[C@H](CC(C)C)N(C)C(=O)[C@@H]1C` [Example 118, (6S,9S,12S,15S,18R,19R)-12-cyclohexyl-19-hexyl-9-(hydroxymethyl)-15-isobutyl-16,18-dimethyl-6-[(1S)-1-hydroxyethyl]-1-oxa-4,7,10,13,16-pentazacyclononadecane-2,5,8,11,14,17-hexone], the MIC is 4.4 µM (≈ 3 µg/mL).

Take `CCCCCC[C@H]1OC(=O)CNC(=O)[C@H](CCO)NC(=O)[C@H](CN)NC(=O)[C@H]([C@H](C)CC)NC(=O)[C@H](CC(C)C)N(C)C(=O)[C@@H]1C` [Example 13, (6S,9S,12S,15S,18R,19R)-9-(aminomethyl)-19-hexyl-6-(2-hydroxyethyl)-15-isobutyl-16,18-dimethyl-12-[(1R)-1-methylpropyl]-1-oxa-4,7,10,13,16-pentazacyclononadecane-2,5,8,11,14,17-hexone]: the MIC was 50 µM (≈ 32.7 µg/mL).

Consider `CCCCCCCCCC[C@H]1OC(=O)CNC(=O)[C@H]([C@H](C)O)NC(=O)[C@H](CN)NC(=O)[C@H]([C@H](C)CC)NC(=O)[C@H](CCC(C)C)N(C)C(=O)[C@@H]1C` [Example 15, (6S,9S,12S,15S,18R,19R)-9-(aminomethyl)-19-decyl-6-[(1S)-1-hydroxyethyl]-15-isopentyl-16,18-dimethyl-12-[(1R)-1-methylpropyl]-1-oxa-4,7,10,13,16-pentazacyclononadecane-2,5,8,11,14,17-hexone], for which the minimum inhibitory concentration (MIC) was 6.3 µM (≈ 4.57 µg/mL).

The molecule `CCC[C@H]1C(=O)N[C@@H](C2CCCCC2)C(=O)N[C@@H](CN)C(=O)N[C@@H](CO[C@H]2C[C@H](N)C2)C(=O)N[C@H](C)CO[C@H](CC2CC3(CCC3)C2)[C@@H](C)C(=O)N1C` [Example 172, (3R,6S,9S,12S,15S,18R,19R)-6-(((1r,3S)-3-Aminocyclobutoxy)methyl)-9-(aminomethyl)-12-cyclohexyl-3,16,18-trimethyl-15-propyl-19-(spiro[3.3]heptan-2-ylmethyl)-1-oxa-4,7,10,13,16-pentaazacyclononadecane-5,8,11,14,17-pentaone] (cyclo([Chg][Dap]S(Cyclobutyl(trans-3-NH2))[X13][NMeNva])) showed an MIC of 4.4 µM (≈ 3.28 µg/mL).

Regarding `CCCCCC[C@H]1OC(=O)CNC(=O)[C@H]([C@H](C)O)NC(=O)[C@H](CN)NC(=O)[C@H](C2CCCCC2)NC(=O)[C@H](CC(C)C)N(C)C(=O)[C@@H]1CC(F)(F)F` [Example 68, (6S,9S,12S,15S,18R,19R)-9-(Aminomethyl)-12-cyclohexyl-19-hexyl-6-((S)-1-hydroxyethyl)-15-isobutyl-16-methyl-18-(2,2,2-trifluoroethyl)-1-oxa-4,7,10,13,16-pentaazacyclononadecane-2,5,8,11,14,17-hexaone], the MIC worked out at 3.1 µM (≈ 2.32 µg/mL).

As to `CCCCCCCCCC[C@H]1OC(=O)CNC(=O)[C@H]([C@H](C)O)NC(=O)[C@H](CN)NC(=O)[C@H]([C@@H](C)CC)NC(=O)[C@H](CC(C)C)N(C)C(=O)[C@@H]1C` [Example 23, (6S,9S,12S,15S,18R,19R)-9-(aminomethyl)-19-decyl-6-[(1S)-1-hydroxyethyl]-15-isobutyl-16,18-dimethyl-12-[(1S)-1-methylpropyl]-1-oxa-4,7,10,13,16-pentazacyclononadecane-2,5,8,11,14,17-hexone], the MIC was 3.1 µM (≈ 2.2 µg/mL).

`CCCCCCCCCC[C@H]1OC(=O)CNC(=O)[C@H]([C@H](C)O)NC(=O)[C@H](CN)NC(=O)[C@H](CCCOC)NC(=O)[C@H](CC(C)C)N(C)C(=O)[C@@H]1C` [Example 87, (6S,9S,12S,15S,18R,19R)-9-(aminomethyl)-19-decyl-15-isobutyl-12-(3-methoxypropyl)-16,18-dimethyl-6-[(1S)-1-hydroxyethyl]-1-oxa-4,7,10,13,16-pentazacyclononadecane-2,5,8,11,14,17-hexone] came in with an MIC of 50 µM (≈ 36.3 µg/mL).
